Experimental data: US10016414B2, “Modulation of ubiquitination of synaptic proteins for the treatment of neurodegenerative and psychiatric disorders” (UNIVERSITY OF MASSACHUSETTS, priority 2010, dated 2018)

Assays:
[1] = biological target: T1, interaction between PSD-95 and Mdm2 (Mus musculus, UniProt P23804); test: Mdm2 binding to PSD-95 in acute forebrain slices (Mdm2 immunoprecipitation, PSD-95 Western blot); type: cell-based; conditions: Nutlin-3 5 μM for 30 min, normalized to absence of Nutlin-3
T1 construct: from tissue; host or cells: acute mouse forebrain slices
Protocol: A. Immunoblot showing the interaction between Mdm2 and PSD-95 in the presence or absence of the Mdm2 inhibitor Nutlin-3. Acute mouse forebrain slices were treated with Nutlin-3 (5 μM for 30 min), followed by immunoprecipitation of Mdm2. Immunoprecipitates were subjected to Western blot analysis with anti-PSD-95 and anti-Mdm2 antibodies. IgG: control immunoprecipitation with mouse IgG.
B. A bar graph depicting the proportion of PSD-95 bound to Mdm2 from FIG. 6A, normalized to levels of PSD-95 bound to Mdm2 in the absence of Nutlin-3. There was a 60% decrease in the interaction of PSD-95 with Mdm2.
To test this hypothesis, acute mouse forebrain slices were prepared and subjected to treatment with or without Nutlin-3. The interaction between PSD95 and Mdm2 was assessed by immunoprecipitation of Mdm2, followed by Western blot analysis to assess the extent of PSD-95 binding. Consistent with PSD-95 binding to the same region of Mdm2 as other Mdm2 substrates, Nutlin-3 decreased the interaction between PSD-95 with Mdm2 by 60% (FIGS. 6A and B).

[2] = system: surface GluA1 (AMPAR) in hippocampal neurons; test: Aβ-induced AMPAR endocytosis: surface GluA1 in cultured hippocampal neurons; type: cell-based, rat; conditions: for GluA1 surface expression (GluA1 puncta normalized to SV2 puncta and to naïve cultures): 2 hrs, naïve 100%±4%, n=3
Protocol: A. Micrograph showing GluA2 surface expression upon Aβ treatment in the presence or absence of Nutlin-3. Rat hippocampal neurons were cultured, and treated with Aβ or Aβ together with either Nutlin-3 (5 μM) or HLI373 (15 μM) for 2 hours. The final concentration of Aβ was 0.3 ng/mL. Naïve and Nutlin-3 and HLI373 treatments, without Aβ treatment, were used as controls. Surface expression of AMPARs was measured by labeling the cultured neurons in vivo with an antibody to the AMPAR subunit GluA1, followed by confocal microscopy and immunofluorescence quantification by MetaMorph. The number of GluA1 puncta was normalized to SV2 puncta (a presynaptic marker) and to the value in control naïve cultures. […] Scale bar=5 μm. B. Bar graph showing quantification of the percentage of surface GluA1 in response to the various treatment described in A. Results are presented as mean±SEM.
Soluble amyloid beta (Aβ) peptides contribute directly to synapse loss and decreased dendritic spine density and glutamate receptors at the synapse. Moreover, Aβ has been reported to induce AMPAR internalization in cultured neurons. To evaluate the effect of Mdm2 inhibitors on this process, cultured rat hippocampal neurons were treated for 2 hrs with Aβ (or Aβ together with either Nutlin-3 (5 μM) or HLI-373 (15 μM). Aβ can be prepared from 7PA2 Chinese hamster ovary (CHO) cells stably expressing human amyloid precursor protein (APP)751 containing the V717 mutation (Walsh et al., 2005; Shankar et al., 2007; Shankar et al., 2011), and is also available commercially from, e.g., rPeptide (Bogart, G A). The concentration of Aβ in the hippocampal cultures was 0.3 ng/mL. Naïve and Nutlin-3 and HLI-373 treatments were used as controls. Surface expression of AMPARs was measured by labeling the cultured neurons in vivo with an antibody to the AMPAR subunit GluA1, followed by confocal microscopy and immunofluorescence quantification by MetaMorph. The number of GluA1 puncta was normalized to SV2 puncta (a presynaptic marker) and to the value in control naïve cultures (see FIGS. 8A and B).
Minimum inhibitor concentrations of Nutlin-3a or HLI-373, as well as any other Mdm2 inhibitor identified using the screens described supra, can be readily determined by using different ranges of inhibitor concentrations and assessing the effects of the particular concentrations on surface expression of AMPARs. Similar results are expected with other inhibitors of PSD-95 ubiquitination by Mdm2, such as PSD-95 inhibitors.

[3] = system: surface GluA2 (AMPAR) in hippocampal neurons; test: NMDA-induced AMPAR endocytosis: surface GluA2 by antibody feeding in hippocampal cultures; type: cell-based, rat; conditions: inhibitor 5 μM for 30 min before NMDA 100 μM for 3 min, then 15 min; naïve 100%±9.47%; n=3
Protocol: A. Micrograph showing GluA2 surface expression upon NMDA treatment in the presence or absence of Nutlin-3. Cultured hippocampal neurons were subjected to an antibody feeding protocol using an antibody that recognizes an extracellular domain of GluA2. The neurons were subsequently pretreated with Nutlin-3 (5 μM for 30 min) prior to NMDA treatment (100 μM for 3 min), followed by agonist washout. Neurons were incubated for an additional 15 min (with or without Nutlin-3) before immunocytochemical analysis of PSD-95 and surface GluA2 by confocal microscopy.
B. A bar graph depicting the proportion of GluA2 found at the surface of cultured hippocampal neurons upon treatment with or without NMDA, in the presence or absence of Nutlin-3. Results are presented as mean±SEM.
Brief stimulation of NMDARs induces AMPAR endocytosis in cultured neurons (Colledge et al., 2003; Bhattacharyya et al., 2009). To determine whether Nutlin-3a antagonizes NMDA-induced AMPAR endocytosis, measured as loss of surface AMPAR staining, the surface expression of GluA2 (a subunit of AMPARs in rat hippocampal cultures) was assessed. Surface GluA2 were labeled in vivo by an antibody feeding protocol using an antibody that recognizes an extracellular domain of GluA2 (Ehlers, 2000; Lin et al., 2000; Bhattacharyya et al., 2009). Neurons were pretreated with Nutlin-3a (5 μM for 30 min) prior to NMDA treatment. After brief stimulation with NMDA (100 μM for 3 min) and agonist washout, neurons were incubated for an additional 15 min (with or without Nutlin-3a) before immunocytochemical analysis of PSD-95 and surface GluA2 by confocal microscopy under the same settings. Immunostained puncta were quantified using MetaMorph software (3 neurons from 2 coverslips with approximately 450 puncta analyzed/condition) and the number of GluA2 puncta was normalized to the number of PSD-95 puncta.
Naïve and NMDA-stimulated conditions were used as controls. […]

[4] = oral gavage, 100 mg/kg once daily; between 1-8 hours after administration (Zhang et al., 2011); cited from earlier work

T1 sequence (P23804 whole entry): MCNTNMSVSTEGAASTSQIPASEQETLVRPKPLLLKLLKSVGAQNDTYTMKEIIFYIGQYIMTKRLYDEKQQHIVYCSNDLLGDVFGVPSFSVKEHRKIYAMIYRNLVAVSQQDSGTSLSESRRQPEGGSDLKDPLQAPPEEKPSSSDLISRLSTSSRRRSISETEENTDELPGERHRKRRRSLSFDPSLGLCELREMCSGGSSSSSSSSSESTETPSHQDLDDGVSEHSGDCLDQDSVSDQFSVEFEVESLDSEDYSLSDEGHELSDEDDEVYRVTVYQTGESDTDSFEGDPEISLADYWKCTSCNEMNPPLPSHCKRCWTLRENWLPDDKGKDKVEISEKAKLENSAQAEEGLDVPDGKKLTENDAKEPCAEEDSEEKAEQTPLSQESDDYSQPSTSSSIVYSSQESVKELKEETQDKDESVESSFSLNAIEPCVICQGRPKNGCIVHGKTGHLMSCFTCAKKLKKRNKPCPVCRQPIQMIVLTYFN

SMILES	decrease in the interaction of PSD-95 with Mdm2 [1] [%]	effect on loss of surface GluA1 induced by Aβ ([2]; Aβ 0.3 ng/mL, 2 hours, Nutlin-3 5 μM, HLI373 15 μM)	GluA1 surface expression (GluA1 puncta normalized to SV2 puncta and to naïve cultures) ([2]; inhibitor alone, without Aβ, Nutlin-3 5 μM, HLI-373 15 μM)	GluA2 surface expression (GluA2 puncta normalized to PSD-95 puncta, versus naïve control) [3] [%]	GluA1 surface expression (GluA1 puncta normalized to SV2 puncta and to naïve cultures) ([2]; co-treatment with Aβ 0.3 ng/mL, Nutlin 5 μM, HLI373 15 μM)	concentration in brain tissue [4] [nM]
COc1ccc(C2=N[C@@H](c3ccc(Cl)cc3)[C@@H](c3ccc(Cl)cc3)N2C(=O)N2CCNC(=O)C2)c(OC(C)C)c1 [Nutlin-3]	60	prevented the loss of surface GluA1 induced by Aβ treatment	90.6%±3.71%	60.86±3.98		
COc1ccc(C2=NC(c3ccc(Cl)cc3)C(c3ccc(Cl)cc3)N2C(=O)N2CCNC(=O)C2)c(OC(C)C)c1 (single isomer, unassigned; (-)) [Nutlin-3a, (−)-4-(4,5-bis(4-chlorophenyl)-2-(2-isopropoxy-4-methoxyphenyl)-4,5-dihydro-1H-imidazole-1-carbonyl)piperazin-2-one]					152.29%±19.88%	1000 to 2000
